Data published in patent publication US10265374B2, “Occidiofungin formations and uses thereof” (MISSISSIPPI STATE UNIVERSITY, priority 2014, dated 2019).
Where two headings read alike, the source gives them in different places. Blank lines part the entries; values can stand above or below the molecule they belong to. Starred links: 1 amine or outer side, 2 acyl side, 3 side chain; linkers in the order of their positions; H or OH if unused. Positions of bridges follow the written chain, without caps; N, C: chain ends. Non-standard residues stand in square brackets, D forms with d. Residues, ends and D or L forms follow the SMILES beside them. ξ: configuration not given here. X1 = CCCCCCCCCCCC(OC1OCC(O)C(O)C1O)C(O)C(O)CC(CC(=O)[*:1])N[*:2]; ξTyr(βOH) = NC(C(=O)O)C(O)c1ccc(O)cc1; ξAsn(3ξ-OH) = NC(=O)C(O)C(N)C(=O)O; Dab = NCC[CH](N)C(=O)O

Key:
[1] = In vitro toxicity screening (CellTiter-Blue cell viability, 48 hours); format: cell-based, human; conditions: human
From the text: Cancer cell lines, OVCAR8 (Center for Cancer Research (OVAR.8; Sample ID 25)), SW1088 (ATCC-HTB-12), and Toledo (ATCC CRL-2631), and normal human neonatal dermal fibroblasts cell line (ATCC-PCS-201-010) were passaged and prepped as previously described (See References 15-17). OVCAR8, SW1088, and Toledo2631 are ovarian, brain, and B-cell lymphoma cancer cell lines, respectively. This panel of cell lines was chosen based, in part, on their being from very different cancer types in order to discern whether occidiofungin would have a broad spectrum activity towards cancer cell lines of vastly different parental organ/cell types. OVCAR8 cells are widely used in the field of cancer therapeutic research as a panel representative of ovarian cancer in screening experiments for identifying both ovarian-specific and non-specific (i.e., anti-neoplastic activity on multiple cancer cell types) therapeutic agents (See References 28-30). Similarly, SW1088 cells are widely used in the field of cancer therapeutic research as a panel representative of glioma (the most common brain cancer) in screening experiments for identifying both glioma-specific and non-specific therapeutic agents (See References 31-32). Toledo 2631 cells are derived from lymphoma cells, and are used in the field of cancer therapeutic research for identifying lymphoma-specific and non-specific therapeutic agents (See, e.g., Reference 33). […] Cell counts per plate were calculated to be approximately 50,000 cells/mL. A 10× stock solution of occidiofungin was prepared at 65 μM concentration in 10% dimethyl sulfoxide (DMSO). Two-fold serial dilutions on a 96 well plate were set up in triplicate with starting concentration of 6.5 μM and a final concentration of 3 nM. Bortezomib was used as a comparator for toxicity against human fibroblast and was serially diluted two-fold starting at a concentration of 5 μM and ending at 2.5 nM. Bortezomib is used clinically against myeloma and lymphoma cancers in patients refractory against other chemotherapeutics (See References 18, 19). Furthermore, bortezomib has shown efficacy against a variety of solid tumors and cancer cell lines, making this an appropriate comparison molecule in the panel of cell lines chosen (See References 34-35). The plates were then incubated at 37° C. in 5% CO2 for 48 hours. After 48 hours, cell viability was monitored using CellTiter-Blue (Promega) cell viability assay by measuring the fluorescence emission of a redox activated dye (579EX/584EM) using a POLARstar Omega microplate reader (BMG Labtech).

[2] = test system: normal cells with lower metobolism; conditions: cited from earlier work
[3] = Pharmacokinetics of occidiofungin in DOPC or DOPC:DPPG vesicles; format: in vivo, mice; conditions: for half-life: female, BALB/c
Experimental: Entrapment of occidiofungin in vesicles was done using 1,2-Dioleoyl-sn-glycero-3-phosphocholine (DOPC) and 1,2-dipalmitoyl-sn-glycero-3-[phospho-rac-(3-lysyl(1-glycerol))] (DPPG) from Avanti polar lipids. Lipid cake formation and subsequent hydration was done according to the manufacturer's recommendation. Briefly, 20 mg/ml of DOPC in chloroform was placed in a glass beaker and dried by vacuum evaporation to remove the organic solvent. The lipid film formed was hydrated using a 1 μg/μl solution of occidiofungin in 1.5% (2-Hydroxypropyl)-β-cyclodextrin (Alfa Aesar), while maintaining the lipid concentration at 20 mg/ml and the solution was sonicated to form the vesicles. Similarly, DPPG was mixed with DOPC at a ratio of 9:1 (DOPC:DPPG) to make a homogenous lipid mixture at a concentration of 20 mg/ml and the same process of drying and hydration was repeated to make vesicles. Following vesicle formation, estimation of the amount of occidiofungin trapped inside each type of vesicle was done. The mixture containing free and vesicle trapped occidiofungin was passed through a gel filtration column containing Sephadex G-10 beads. The void volume (containing only the vesicle trapped occidiofungin) was collected and occidiofungin extracted using methanol (50% final concentration). Liquid chromatography was done on the extracted sample, and a standard and the concentration of occidiofungin in the extracted sample was estimated by a comparison of peak volumes.
Occidiofungin in DOPC and DOPC-DPPG, at a concentration of 2.5 mg/kg, with ˜1.25 mg/kg entrapped in vesicles, was administered to six female BALB/c mice respectively via intravenous administration. […] The mice were weighed prior to the start of the experiment and every 24 hours post injection (hpi).
Blood was drawn at time points 1 hpi, 3 hpi, 5 hpi, 7 hpi, 9 hpi, 12 hpi, 18 hpi, 24 hpi and 48 hpi. 15 μl of blood was drawn from the lateral saphenous vein of each mouse for the first three time points. Blood from three mice were pooled together and added to 5 μl of 6.4% citric acid to prevent coagulation. From the fourth time point, blood was drawn from the tail vein of the mice. Blood samples were spun down at 13000 rpm for 10 minutes to separate the plasma. The plasma and the blood pellet obtained were stored separately at −20° C. until analysis. The plasma samples were thawed and the occidiofungin was extracted using a final concentration of 50% methanol. The protein precipitate was spun down at 13000 rpm for 10 minutes and the supernatant was used for analysis. Liquid chromatography was done using Acclaim 120 C18 columns (Length: 150 mm; I.D: 2.1 mm; 5 μm) to purify the occidiofungin in the sample. The occidiofungin was then subjected to MS/MS. Fragmentation of the occidiofungin (parent mass 1200 and 1216 Da) was carried out and the fragment of 1068 and 1084 Da m/z, which corresponds to the occidiofungin molecule (A and B forms, respectively) without the xylose sugar, was used for quantification of occidiofungin. A calibration curve constructed using standard concentrations of occidiofungin in plasma was used to analyze the samples obtained from the mice for pharmacokinetics (See FIGS. 6A-6B & 7A-7B).

SMILES: CC(C)C[C@H](NC(=O)[C@H](Cc1ccccc1)NC(=O)c1cnccn1)B(O)O [Bortezomib, bortezomib, reference compound]
CC50 at 48 h [1]: 4.09 µM
toxicity in normal cells [2]: micromolar range

half-life ([3]; mouse, in vivo, iv, 2.5 mg/kg): 14.6 h
ke1 ([3]; mouse, in vivo, iv, 2.5 mg/kg): 0.0474 h⁻¹
SMILES: CCCCCCCCCCCC(OC1OCC(O)C(O)C1O)C(O)C(O)CC1CC(=O)NC(CO)C(=O)NC(C(O)c2ccc(O)cc2)C(=O)NC(CCN)C(=O)NCC(=O)NC(CC(N)=O)C(=O)NC(CO)C(=O)NC(CC(N)=O)C(=O)N1 (stereo not drawn) [OCFIN-A] (S[ξTyr(βOH)][Dab]GNSN; linker N-C via X1; configuration not given here)

SMILES: CCCCCCCCCCCC(OC1OCC(O)C(O)C1O)C(O)C(O)CC1CC(=O)NC(CO)C(=O)NC(C(O)c2ccc(O)cc2)C(=O)NC(CCN)C(=O)NCC(=O)NC(CC(N)=O)C(=O)NC(CO)C(=O)NC(C(O)C(N)=O)C(=O)N1 (stereo not drawn) [OCFIN-B] (S[ξTyr(βOH)][Dab]GNS[ξAsn(3ξ-OH)]; linker N-C via X1; configuration not given here)
half-life ([3]; mouse, in vivo, iv, packaged in DOPC:DPPG (90:10) vesicles, 2.5 mg/kg i.v., mice, read-out: t½ (converted)): 14.8 h
ke1 ([3]; packaged in DOPC:DPPG (90:10) vesicles, 2.5 mg/kg i.v., mice): 0.0467 h⁻¹
